Assay results taken from US5866576A, “Epoxide-containing compounds” (Cell Therapeutics, Inc., priority 1997, dated 1999).

How the values were obtained:
[1] = system: PBMC (peripheral blood mononuclear cells); test: two-way mixed lymphocyte reaction, PBMC (FIG. 1); format: cell-based; details: for potency in mixed lymphocyte reaction compared with PTX: PTX not shown on graph
Source text: This example illustrates the effects of inventive compounds nos. 1605, 1808 and 1906 as immune modulators in a mixed lymphocyte reaction. […] 1605, 1808 and 1906.

Ramos B-cell tumor line = test: B-cell proliferation, Ramos line stimulated with anti-mu or PMA (FIG. 3); format: cell-based, human; details: 250 μM, anti-mu or PMA (5 nM)
Experimental: A Ramos […] tumor line was treated with 250 μM 1808 or 1605 for one hour prior to stimulation of proliferation with anti-mu antibody or phorbol myristic acid (PMA, 5 nM). One day later, proliferation was measured with tritiated thymidine.
This example illustrates a comparison of inventive compounds nos. 1605 and 1808 for inhibition of B-cell proliferation. A Ramos B-cell tumor line was treated with 250 μM 1808 or 1605 for one hour prior to stimulation of proliferation with anti-mu antibody or PMA (5 nM). One day later, proliferation was measured with tritiated thymidine.

human stromal cells = test: PDGF-induced proliferation of human stromal cells (FIG. 4); format: cell-based; details: PDGF-BB 50 ng/ml
Experimental: (§1) Human stromal cells were starved in serum-free media for 24 hours and then stimulated with 50 ng/ml of PDGF-BB. The drugs were added at various indicated concentrations one hour prior to PDGF stimulation. Tritiated thymidine was added for 24 hrs at the time of PDGF stimulation to measure cellular proliferation. Background counts were approximately 5% of control levels.
as §1, with “This example illustrates a comparison of inventive compounds nos. 1605, 1808 and 1906 on PDGF-induced (platelet derived growth factor) proliferation of human stromal cells. Human” for “Human”, “hours” for “hrs”

[2] = system: U937 cells; human umbilical vein endothelial cells (HUVEC); test: adhesion of U937 cells to TNF-α activated HUVEC (FIG. 5); format: cell-based; details: TNF-α 20 ng/ml, 12 hours
Experimental: HUVEC cells were activated with 20 ng/ml of TNF for 12 hrs. Drug was added to each culture (except for controls) one hour prior to adding TNF. U937 cells, preloaded with the fluorescent dye BCECF, were added to each culture well and then washed. Cell adhesion was determined on a fluorescence plate reader, showing a decrease in cell adhesion caused by all three drugs in a dose dependent fashion.
This example illustrates a comparison of the effects of inventive compounds nos. 1605, 1808 and 1906 to inhibit adhesion of U937 cells to activated human umbilical vein endothelial cells (HUVEC). HUVEC cells (4000/ well, seeded 72 hours in advance) were activated with 20 ng/ml of TNF-α for 12 hours. Drug was added to the HUVEC (except for controls) one hour prior to adding TNF-α. U937 cells, preloaded with the fluorescent dye BCECF, were added to each culture well and then washed twice with PBS. Cell adhesion was determined by measuring the fluorescence of adhering U937 cells on a fluorescence plate reader.

[3] = system: vascular cell adhesion molecule-1 (VCAM) in human umbilical vein endothelial cells (HUVEC); test: cell surface expression of VCAM in TNF-α stimulated HUVEC, flow cytometry (FIG. 6); format: cell-based; details: TNF-α 20 ng/ml, 20 hrs
Experimental: The HUVEC cells were stimulated with 20 ng/ml TNF-α for 20 hrs and then stained for immunofluorescence using a monoclonal antibody recognizing VCAM, followed by a goat anti-mouse antibody conjugated to phycoerythrin. The cells were analyzed for antibody binding using flow cytometry.
This example illustrates the effects of inventive compounds nos. 1605, 1808 and 1906 to inhibit cell surface expression of vascular cell adhesion molecule-1 (VCAM) in human umbilical vein endothelial cells (HUVEC). The HUVEC cells were stimulated with 20 ng/ml TNF-α for 20 hrs and then stained for immunofluorescence using a monoclonal antibody recognizing VCAM, followed by a goat anti-mouse antibody conjugated to phycoerythrin. The cells were analyzed for antibody binding using flow cytometry.

[4] = system: LPS-induced TNF release in whole human blood; test: LPS-induced TNF release in whole human blood (FIG. 14); format: cell-based; details: LPS 10 ng/ml, read-out: inhibition of TNF-α induction
Experimental: This example illustrates inhibitive effects of the inventive compounds on LPS-induced TNF release. Data collected is reported as percent inhibition of LPS induced TNF release in whole human blood as compared with control values of TNF release.
In this assay, whole blood was collected from a healthy human donor into Vacutainer tubes containing ACD citrate anti-coagulant. Compounds to be tested were diluted in RPMI medium and added (5 μl) to tubes containing whole blood (225 μl). The tubes were mixed and incubated for a maximum of 1 hour at 37° C. LPS Salmonella abortus equi was diluted in RPMI and added to samples at 20 μl per tube (10 ng/ml final concentration). The prepared tubes were mixed and incubated for 4-6 hours at 37° C. The reaction was terminated by adding 750 μl of RPMI to each tube, then centrifuged to remove cells. Supernatants are collected and stored overnight at 4° C. Supernatant samples are assayed for TNF release using commercial immunoassay kits.

Balb/3T3 cells [5] = test: PDGF-stimulated Balb/3T3 cell proliferation; format: cell-based; details: FIGS. 8A (1409), 8B (1560); PDGF/BB
Experimental: Balb/3T3 cells respond vigorously to PDGF stimulation, and are useful in vitro models for further study of PDGF-induced proliferation. Disregulated PDGF-proliferative response has been linked to a variety of diseases, including, e.g., restenosis, atherosclerosis, fibrosis, and tumor cell angiogenesis.
Balb/3T3 cells were maintained in exponential growth. The cells were removed from a flask with EDTA and plated into 96 well plates at 3000 cells/well. After 48 hours, the media was removed, the cells washed once with PBS and serum free media and the cultures allowed to rest for a 24 hour period. Inventive compounds were added to the wells containing media and Balb/3T3 cells one hour prior to incubation with PDGF/BB, added at constant 10 μM concentrations along with 1 μ Ci 3-H-thymidine dye. Cells were subsequently incubated for 18-24 hours, harvested, and incorporated thymidine assessed on a Packard Topcount to determine degree of cell proliferation. Data obtained in this assay was used to determine experimental 50% inhibition concentrations for the inventive compounds tested.

Balb/3T3 cells [6] = test: Balb/3T3 cytotoxicity assay (BCECF-AM); format: cell-based; details: FIGS. 8C, 8D
Experimental: In conjuction with the Balb/3T3 proliferation assay conducted above, a Balb/3T3 cytotoxicity assay was conducted to determine that the inhibition on proliferation was not due to cytotoxic effects. This assay is similar to the assay decribed above except tritiated thymidine was not added and after 18-24 hours incubation with PDGF/BB and a lOuM solution of 2,7-bis-(2-carboxyethyl)-5(and-6)carboxyflouresceinacetoxymethyl ester (BCECF-AM) was added for 30 minutes at 37° C. (BCECF is a compound that when cleaved by esterases, yields a fluorescent product in viable cells only, therefore providing a measure of viable cell numbers). Following sufficient incubation, BCECF is replaced with PBS and the plate examined with flourescence in a Millipore "cytofluor." The data is compiled and plotted.

thymocytes [7] = test: thymocyte proliferation co-stimulated with Con A and/or IL-1α (FIG. 2); format: cell-based, Balb/C mice; details: three dose levels
Experimental: The thymocytes were obtained from normal female Balb/C mice and stimulated with Concanavalin A (Con A) and/or interleukin-1 alpha (L-1α). Drugs were added to the cell cultures two hours before activation with Con A and/or IL-1α.
This example illustrates a comparison of three dose levels of inventive compounds nos. 1808 and 1906 and no drug control to inhibit thymocyte proliferation. The thymocytes were obtained from normal female Balb/C mice and co-stimulated with Concanavalin A (Con A) and/or IL-1α (interleukin-1 alpha). The thymuses were dissociated and plated into 96-well plates at a density of 2×10^5 cells/well. Dilutions of Con A and/or IL-1α were added to the wells and the cells were incubated for 4 days at 37° C. Drugs were added to the cell cultures two hours before activation with Con A and/or IL-1α. On day 4, the cells were pulsed with tritiated thymidine and allowed to incubate an additional 4 hrs. The cells were harvested and counted.

thymocytes [8] = test: murine thymocyte proliferation assay co-stimulated by ConA and IL-2 (FIGS. 7A-7E); format: cell-based, Balb/C mice; details: Mus musculus, FIG. 7A
Source text: This example illustrates dose response curves used to generate 50% inhibition concentrations (IC50) for inventive compounds nos. 1410, 1439, 1541, 1553, 1553S, 1560, 1565, 2548R, 2548S and 2562 in a murine thymocyte proliferation assay, co-stimulated by Concanavalin A (ConA) and interleukin-2 alpha (IL-2). ConA, used to activate the T-cell receptor (TCR), along with IL-2 co-stimulation, induces T-cell proliferation and differentiation. Thymuses, obtained from normal, female Balb/C mice, were dissociated and plated into 96-well plates at a density of 2×10^5 cells/well. ConA (0.25 mg/ml) and IL-2 (15 U/ml) were added to the wells. The cells were incubated for 4 days at 37° C. On day 4, the cells were pulsed with tritiated thymidine and incubated for an additional 4 hours. The amount of tritiated thymidine incorporated by the harvested cells was determined in a liquid scintillation counter. Doses of inventive compounds (shown in FIGS. 7A-7E) were added two hours prior to ConA and IL-2 activation. Background counts were less than 200 cpm. Results obtained, illustrate the ability of the inventive compounds to inhibit thymocyte proliferation and activation. In FIG. 7A, inventive compounds nos. […] FIG. 7B presents additional data for compound no. 1410 and 1553S in this assay. […] FIG. 7C reports assay results for inventive compounds nos. 1439, 1541, 1560 and 1565. […] FIGS. 7D and 7E illustrate assay results for inventive compounds nos. 1541, 1553, 1560 and 1565 (FIG. 7D) and 2562, […] (FIG. 7E). As is true of other inventive compounds tested, all these compounds represented in FIGS. 7D and 7E inhibit thymocyte proliferation. […] 1541, 1553, 1560, 1565, 2562, 2548R and 2548S, respectively.

SMILES | activity in mixed lymphocyte reaction (immune modulation) [1] | potency in mixed lymphocyte reaction compared with PTX [1] | inhibition of B-cell proliferation (Ramos B-cell tumor line) | inhibition of PDGF-induced proliferation (human stromal cells) | inhibition of U937 cell adhesion to HUVEC [2] | mean fluorescence (VCAM surface expression) [3] | inhibition at 50 µM [4] [%] | inhibition of Balb/3T3 proliferation (Balb/3T3 cells [5]) | cytotoxic effects (Balb/3T3 cells [6]) | inhibition of thymocyte proliferation (thymocytes [7]) | IC50 (thymocytes [8]) [µM]
O=C1CCCC(=O)N1CCCCC1CO1 (centres unmarked) [Compound 1605, N-(5,6-Oxidohexyl) glutarimide] | demonstrated activity | more potent than PTX | inhibited proliferation | inhibited PDGF-induced stimulation in a dose response fashion | decrease in cell adhesion induced by TNF-α in a dose dependent fashion | Mean fluorescence levels were decreased |  |  |  |  | 
CCCCCCCCC1OC1CCCCCCCCn1c(=O)c2c(ncn2C)n(C)c1=O (centres unmarked) [Compound 2541, 1-(9,10-Oxidooctadecyl)-3,7-dimethylxanthine] |  |  |  |  |  |  | 25 |  |  |  | 
Cn1c(=O)n(CCCCCCCC2CO2)c(=O)c2c1ncn2COC(=O)C(C)(C)C (centres unmarked) [Compound 1409, 1-(8,9-Oxidononyl)-3-methyl-7-methylpivaloylxanthine] |  |  |  |  |  |  |  | inhibit Balb/3T3 proliferation | without exhibiting cytotoxic effects |  | 
Cc1cn(C)c(=O)n(CCCCC2CO2)c1=O (centres unmarked) [Compound 1906, 3-(5,6-Oxidohexyl)-1-methylthymine] | demonstrated activity | more potent than PTX |  | inhibited PDGF-induced stimulation in a dose response fashion | decrease in cell adhesion induced by TNF-α in a dose dependent fashion | Mean fluorescence levels were decreased |  |  |  | inhibited thymocyte proliferation is a dose-dependent fashion | 
Cn1ccc(=O)n(CCCCC2CO2)c1=O (centres unmarked) [Compound 1808, 3-(5,6-Oxidohexyl)-1-methyluracil] | demonstrated activity | more potent than PTX | inhibited proliferation | inhibited PDGF-induced stimulation in a dose response fashion | decrease in cell adhesion induced by TNF-α in a dose dependent fashion | Mean fluorescence levels were decreased |  |  |  | inhibited thymocyte proliferation is a dose-dependent fashion | 99
